Results taken from patent US20220389422A1, “IONIZABLE CATIONIC LIPIDS FOR RNA DELIVERY” (Arcturus Therapeutics, Inc., priority 2021, published 2022).

What was measured:
[1] = tested on: factor VII; assay: Factor VII knock down evaluation (LNP with FVII siRNA); format: in vivo, Balb/C mice; conditions: intravenous, plasma FVII after 48 h, relative to saline-treated controls; for FVII KD % _ 0.01 mpk: 0.01 mg/kg; for FVII KD % _ 0.03 mpk: 0.03 mg/kg
Procedure: Lipid formulations comprising a FVII siRNA further described below were evaluated for their knockdown activity using the protocol of this example. In the FVII evaluation, seven to eight week-old, female Balb/C mice were purchased from Charles River Laboratories (Hollister, Calif.). The mice were held in a pathogen-free environment and all procedures involving the mice were performed in accordance with guidelines established by the Institutional Animal Care and Use Committee (IACUC). Lipid nanoparticles containing factor VII siRNA were administered intravenously at a dosing volume of 10 mL/kg and two dose levels (0.03 and 0.01 mg/kg). After 48 h, the mice were anesthetized with isoflurane and blood was collected retro-orbitally into Microtainer® tubes coated with 0.109 M sodium citrate buffer (BD Biosciences, San Diego, Calif.) and processed to plasma. Plasma specimens were tested for factor VII levels immediately or stored at −80° C. for later analysis. Measurement of FVII protein in plasma was determined using the colorimetric Biophen VII assay kit (Aniara Diagnostica, USA). Absorbance was measured at 405 nm and a calibration curve was generated using the serially diluted control plasma to determine levels of factor VII in plasma from treated animals, relative to the saline-treated control animals.

[2] = tested on: hEPO mRNA; assay: hEPO mRNA expression evaluation (hEPO-LNPs); format: in vivo, Balb/c mice; conditions: intravenous (tail vein), serum hEPO after 6 hr, ELISA; for EPO expression (ng/mL)_0.03 mpk: 0.03 mg/kg; for EPO expression (ng/mL)_0.1 mpk: 0.1 mg/kg
Procedure: Protocol for hEPO mRNA Expression Evaluation Lipid formulations comprising a hEPO mRNA below were evaluated for their ability to express hEPO in vivo according to the protocol of this example. All animal experiments were conducted using institutionally-approved protocols (IACUC). In this protocol, female Balb/c mice at least 6-8 weeks of age were purchased from Charles River Laboratory. The mice were intravenously injected with hEPO-LNPs via the tail vein with one of two dose levels of hEPO (0.1 and 0.03 mg/kg). After 6 hr, blood was collected with serum separation tubes, and the serum was isolated by centrifugation. Serum hEPO levels were then measured using an ELISA assay (Human Erythropoietin Quantikine IVD ELISA Kit, R&D Systems, Minneapolis, Md.).

[3] = In vivo biodegradability assay (lipid in mouse liver); set-up: species or system mice; conditions: for concentration at 48 h: 0.03 mg/Kg dose, read-out: In vivo degradability ng/g of tissue at 48 h_0.03 mpk; for In vivo degradability ng/tissue at 48 h_0.1 mpk: 48 h, 0.1 mg/Kg dose
Procedure: In vivo biodegradability assay was performed to assess the biodegradability of lipids in the LNP. Briefly, mice were injected with either 0.1 or 0.03 mg/Kg dose and after 24 or 48 hours mice livers were collected. To measure the concentration of lipids in the mouse liver, liver samples were homogenized in appropriate buffer in 1-10 dilution and mixed with the same amount of stabilized plasma. The samples were then mixed with organic solvents spiked with internal standard to precipitate proteins. After centrifugation, supernatant was diluted further with organic solvent before sample analysis by LC-MS. In LC-MS analysis, positive electrospray ionization was used, and multiple reaction monitoring (MRM) parameters were set up to specifically target the lipid analyte and internal standard. Calibration standards were prepared in stabilized plasma and mixed with same amount of homogenization buffer before protein precipitation. Quality control samples with known amounts of lipid was prepared in blank liver homogenate to monitor the precision and accuracy of the assay.

[4] = Mouse plasma stability; format: in vitro ADME, CD-1 mouse; conditions: 37° C., starting concentration 1 μM, 120 min, LC-MS
Procedure: Lipid stock solution was prepared by dissolution of the lipid in isopropanol at the concentration of 5 mg/mL. A requisite volume of the lipid-isopropanol solution was then diluted to 100 μM concentration at a total volume of 1.0 mL with in 50:50 (v/v) ethanol/water. Ten microliters of this 100 μM solution was spiked into 1.0 mL of mouse plasma (BioIVT, Cat. No.: MSE00PLNHUNN, CD-1 mouse, anticoagulant: sodium heparin, not filtered) that was pre-warmed to 37° C. and was stirred at 50 rpm with a magnetic stir bar. The starting concentration of lipids in plasma was thus 1 μM. At time points 0, 15, 30, 45, 60 and 120 min, 0.1 mL of the plasma was withdrawn from the reaction mixture and the protein was precipitated by adding 0.9 mL of ice-cold 4:1 (v/v) acetonitrile/methanol with 1 μg/mL of a selected internal standard lipid added. After filtration through a 0.45 micron 96-well filtering plate, the filtrates were analyzed by LC-MS (Thermo Fisher's Vanquish UHPLC-LTQ XL linear ion trap Mass Spectrometer); Waters XBridge BEH Shield RP18 2.5 µm (2.1×100 mm) column with its matching guard column. Mobile phase A was 0.1% formic acid in water, and mobile phase B was 0.1% formic acid in 1:1 (v/v) acetonitrile/methanol. Flow rate was […]. Elution gradient was: Time 0-1 min: 10% B; 1-6 min: 10%-95% B; 6-8.5 min: 95% B; 8.5-9 min: 95%-10% B; 9-10 min: 10% B. Mass spectrometry was in positive scanning mode from 600-1100 m/z. The peak of the molecular ion of the lipids was integrated in the extracted ion chromatography
(XIC) using Xcalibur software (Thermo Fisher). The relative peak area compared to T=0, after normalization by the peak area of the internal standard, was used as the percentage of the lipid remaining at each time point. T1/2 values were calculated using the first-order decay model.

[5] = Measured pKa; format: physicochemical; conditions: read-out: (pKa) measured pKa in parenthesis

| Structure (SMILES) | FVII KD % _ 0.01 mpk [1] | FVII KD % _ 0.03 mpk [1] | EPO expression (ng/mL)_0.03 mpk [2] | EPO expression (ng/mL)_0.1 mpk [2] | concentration at 48 h [3] | In vivo degradability ng/tissue at 48 h_0.1 mpk [3] | Percent of lipid remaining in mouse plasma after 2 h [4] | pKa [5] |
| --- | --- | --- | --- | --- | --- | --- | --- | --- |
| CCCCCCCC(CCCCCCC)COC(=O)CCCC(CCCC(=O)OC(CCCCCCC)CCCCCCC)OC(=O)CCCN(C)C (centres unmarked) [ATX-232] | 74% | 90% | 2115 ng/mL | 510 ng/mL |  |  |  |  |
| CCCCCCC(CCCCCC)COC(=O)CCCCCC(CCCCCC(=O)OCC(CCCCCC)CCCCCC)OC(=O)CCCN(C)C [ATX-231] | 72% | 86% | 1706 ng/mL | 5446 ng/mL | 0 ng/g | 0 ng/tissue | 89% |  |
| CCCCCCCC(CCCCCCC)OC(=O)CCC(CCC(=O)OC(CCCCCCC)CCCCCCC)COC(=O)CCCN(C)C [ATX-201] | 87.4% | 97.5% | 523 ng/mL | 680 ng/mL |  |  |  | 6.74 |
| CCCCCCC(CCCCCC)OC(=O)CCCCCC(CCCCCC(=O)OC(CCCCCC)CCCCCC)OC(=O)CCCN(C)C [ATX-209] | 65.7% | 90.6% | 65 ng/mL | 290 ng/mL | 0 ng/g | 647 ng/tissue | 80% |  |
| CCCCCC(CC)C(=O)OCCCCCCCCCC(CCCCCCCCCOC(=O)C(CC)CCCCC)OC(=O)CCCN(C)C (centres unmarked) [Compound-10111, reference compound] | 89% | 95% | 105 ng/mL | 213 ng/mL | 566 ng/g | 2613 ng/tissue | 91% |  |
| CCCCCCCC(CCCCCCC)OC(=O)CCCC(CCCC(=O)OC(CCCCC)CCCCC)OC(=O)CCCN(C)C (centres unmarked) [ATX-210] | 87% | 97.65% | 329 ng/mL | 662 ng/mL |  |  |  | 6.53 |
| CCCCCCCC(CCCCCCC)OC(=O)CCCC(CCCC(=O)OC(CCCCCCC)CCCCCCC)SC(=O)CCCN(C)C [ATX-202] | 61.42% | 83.22% | 447 ng/mL | 531 ng/mL |  |  |  | 6.17 |
| CCCCCCCC(CCCCCCC)OC(=O)CCCC(CCCC(=O)OC(CCCCCCC)CCCCCCC)COC(=O)CCCN(C)C [ATX-200, 1,9-bis(pentadecan-8-yl) 5-([[4-(dimethylamino)butanoyl]oxy]methyl) nonanedioate] | 87.1% | 97.5% | 494 ng/mL | 828 ng/mL |  |  |  | 6.78 |
| CCCCCCCC(CCCCCCC)OC(=O)CCCC(CCCC(=O)OC(CCCCCCC)CCCCCCC)OC(=O)CCCN(C)C [ATX-193, 1,9-bis(pentadecan-8-yl)5-[[4-(dimethylamino)butanoyl]oxy] nonanedioate] | 95.6% | 100% | 264 ng/mL | 498 ng/mL |  |  |  | 6.35 |
